Results as given in article PMC3975964, “Protective effect of a sesamin derivative, 3-bis (3-methoxybenzyl) butane-1, 4-diol on ischemic and hypoxic neuronal injury” (Journal of Biomedical Science, 2014).

How the values were obtained:
[1] = tested on: COX-2; test: Western blot of hypoxia-induced signaling, BV-2: COX-2; format: cell-based, murine; settings: BV-2 cells, 10 min hypoxia, BBD 20 μM
Protocol: (§1) On the day of experiment, culture media were replaced with glucose-free DMEM, then, gassed with 85% N2, 10% H2, and 5% CO2 for various time periods in the absence or presence of various doses of BBD.
(§2) Samples containing 25 μg of protein were separated on 12.5% (w/v) sodium dodecyl sulfate-polyacrylamide gels, and transferred to immobilon polyvinylidenedifluoride membranes (Millipore, Bedford, USA). The membranes were incubated for 2 h with 5% (w/v) dry skim milk in TBST buffer to block non-specific binding, then ERK, p38 JNK, AKT-1, COX-2, caspase-3, β-actin proteins for neuron cells were detected by a chemiluminescence detection system according to the manufacturer’s instructions (ECL, Amersham, Berkshire, UK).

[2] = tested on: MDA in BV-2 cells; test: Lipid peroxidation (MDA) under hypoxia, BV-2; format: cell-based, murine; settings: hypoxia 30 min, BBD 1, 10, 20 μM
[3] = tested on: ROS in BV-2 cells; test: Hypoxia-induced ROS generation (DCF), BV-2; format: cell-based, murine
[4] = PAMPA-BBB membrane permeability assay
Protocol: The blood–brain barrier limits drug access into the brain, due to tight junctions, membrane drug transporters, and unique lipid composition. Porcine whole-brain lipid is successfully used in passive permeability test for CNS drugs.
The parallel artificial membrane permeation assay (PAMPA) was carried out in a sandwich-like 96-well PAMPA plate formed by a top filter plate containing acceptor wells and a bottom plate containing donor wells. Each composite well was divided into two chambers: 300 μl of donor solution (test article or QC standards) at the bottom and 200 μl of acceptor buffer (PBS buffer containing 5% DMSO) at the top, separated by a polyvinylidene fluoride (PVDF, 0.45 μm pore size) membrane, coated with 4 μl of 20 mg/ml porcine polar brain lipid (PBL) in n-dodecane. […] The final DMSO concentration in working stock solution is 5%. Each compound was performed in triplicate. The test compound diffused from the donor well through the lipid membrane and into the acceptor well. The sandwich plate was placed with the plate lid and incubated at room temperature for approximately 18 h. After reaching diffusion equilibration, the PAMPA sandwich plate was disassembled and the concentration of drug in the acceptor, the donor, and the reference wells was determined using a TECAN microplate reader (Durham, NC, USA).

[5] = tested on: Caspase-3; test: Western blot of hypoxia-induced signaling, BV-2: Caspase-3; format: cell-based, murine; settings: BV-2 cells, 10 min hypoxia, BBD 20 μM
Protocol: as §1, §2

[6] = tested on: p38; test: Western blot of hypoxia-induced signaling, BV-2: p38; format: cell-based, murine; settings: BV-2 cells, 10 min hypoxia, BBD 20 μM
Protocol: as §1, §2

[7] = tested on: PGE2; test: Hypoxia-induced PGE2 release (ELISA), BV-2; format: cell-based, murine; settings: BV-2 cells, hypoxia 30 min, BBD 10 and 20 μM
Protocol: as §1
(§3) Cytokines (IL-1β, IL-6) and PGE2 were measured using ELISA kits (R&D, Minneapolis, MN, USA). The absorbance at 450 nm was determined using a microplate reader (spectraMAX 340).

[8] = tested on: BV-2 cells; test: LDH release under hypoxia, BV-2; format: cell-based, murine; settings: BBD 1, 10, 20 μM
Protocol: (§4) Murine BV-2 microglial cell line was maintained in DMEM supplemented with 10% (v/v) FBS, 100 U/ml penicillin and 100 μg/ml streptomycin (P/S) in a humidified incubator under 5% CO2 at 37°C. Rat pheochromacytoma PC12 cell line was maintained in DMEM supplemented with 10% FBS, 5% horse serum, P/S at 37°C under 5% CO2. Confluent cultures were passaged by trypsinization. In all experiments, the cells were treated with BBD immediately before hypoxia. BBD was dissolved in DMSO. The final concentration of DMSO added to cells never exceeded 0.1% (v/v).
as §1
(§5) Cytotoxicity was determined by measuring the release of LDH. PC12 or BV-2 cells treated with various concentrations of BBD were stressed with hypoxia for one hour and the supernatant was then assayed for LDH activity. An absorbance was read at 490/630 nm using a spectraMAX 340 microtiter plate reader. Data were expressed as the mean percent of viable cells vs. the control.

[9] = tested on: ERK; test: Western blot of hypoxia-induced signaling, PC12: ERK; format: cell-based, rat; settings: PC12 cells, 10 min hypoxia (Figure 5C), BBD 20 μM
Protocol: as §1, §2

[10] = tested on: BV-2 cells; test: MTT cell viability under hypoxia, BV-2; format: cell-based, murine; settings: hypoxia 30 min, BBD 1, 10, 20 μM
Protocol: as §4, §1
(§6) Cell viability was measured using blue formazan that was metabolized from colorless 3-(4,5-dimethyl-thiazol-2-yl)-2,5-diphenyl tetrazolium bromide (MTT) by mitochondrial dehydrogenases, which are active only in live cells. PC12 or BV2 cells were preincubated in 24-well plates at a density of 5 × 10^5 cells per well for 24 h. […] One hour later, 200 μl of solubilization solution were added to each well and absorption values read at 540 nm on microtiter plate reader (spectraMAX 340, Molecular Devices, Sunnyvale, CA, USA). Data were expressed as the mean percent of viable cells vs. control.

[11] = tested on: p38; test: Western blot of hypoxia-induced signaling, PC12: p38; format: cell-based, rat; settings: PC12 cells, 10 min hypoxia (Figure 5C), BBD 20 μM
Protocol: as §1, §2

[12] = tested on: PC12 cells; test: MTT cell viability under hypoxia, PC12; format: cell-based, rat; settings: hypoxia 30 min, BBD 1 to 20 μM
Protocol: as §4, §1, §6

[13] = tested on: ROS in PC12 cells; test: Hypoxia-induced ROS generation (DCF), PC12; format: cell-based, rat; settings: hypoxia 30 min, BBD 1, 10, 20 μM
Protocol: as §1
Intracellular accumulation of ROS was determined using H2DCF-DA, which is a nonfluorescent compound that accumulates in cells following deacetylation. H2DCF then reacts with ROS to form fluorescent dichlorofluorescein (DCF). PC12 cells were plated in 96-well plates and grown for 24 h before addition of DMEM plus 10 μM H2DCF-DA, incubated for 60 min at 37°C, and treated with various concentrations of BBD for hypoxia 30 min. Cells were then washed twice at room temperature with Hank’s balanced salt solution (HBSS without phenol red). Cellular fluorescence was monitored on a Fluoroskan Ascent fluorometer (Labsystems Oy, Helsinki, Finland) using an excitation wavelength of 485 nm and emission wavelength of 538 nm.

[14] = tested on: JNK; test: Western blot of hypoxia-induced signaling, BV-2: JNK; format: cell-based, murine; settings: BV-2 cells, 10 min hypoxia, BBD 20 μM
Protocol: as §1, §2

[15] = tested on: JNK; test: Western blot of hypoxia-induced signaling, PC12: JNK; format: cell-based, rat; settings: PC12 cells, 10 min hypoxia (Figure 5C), BBD 20 μM
Protocol: as §1, §2

[16] = tested on: superoxide dismutase (SOD) activity; test: SOD activity of ischemic brain; format: in vivo, Sprague–Dawley rats; settings: SD rat brain, BBD 10 mg/kg i.p. 90 min after MCAO
Protocol: (§7) Twenty-four male Sprague–Dawley (SD) rats (200~250 gm) were purchased from National Animal Center, Taipei, Taiwan and randomly divided into the control (normal saline), and BBD groups. The experiment was approved by Institutional Animal Care and Use Committee, Taichung Veterans General Hospital (IACUC LA-97490). Rats were injected intraperitoneally (i.p.) with BBD (10 mg/kg) 90 min after MACO experiment. Each SD rat was anesthetized with chlorohydrate (400 mg/kg) i.p. and its body temperature was maintained at 37°C with a heating pad (CMA/150). A midline neck incision was made and the right carotid artery was exposed and separated from the vago-sympathetic trunk. The right carotid artery was loosely encircled with a 4-O suture for later occlusion. The SD rat’s head was placed in a stereotaxic frame (David Kopf, CA, USA) with the nose bar positioned 4.0 mm below the horizontal line. Following a midline incision, the skull was partially removed to expose the right middle cerebral artery. The middle cerebral artery was loosely encircled with an 8-O suture for later occlusion. A focal cerebral ischemia was induced by occlusion of the right common carotid artery and the right cerebral artery (MCAO) for 60 min, followed by reperfusion. […]
Superoxide dismutase (SOD) activity was determined by a Superoxide Dismutase assay kit (Cayman, Ann Arbor, MI, USA). […]

[17] = tested on: COX-2; test: Western blot of hypoxia-induced signaling, PC12: COX-2; format: cell-based, rat; settings: PC12 cells, 10 min hypoxia (Figure 5C), BBD 20 μM
Protocol: as §1, §2

[18] = tested on: AKT-1; test: Western blot of hypoxia-induced signaling, BV-2: AKT-1; format: cell-based, murine; settings: BV-2 cells, 10 min hypoxia, BBD 20 μM
Protocol: as §1, §2

[19] = tested on: focal cerebral ischemia; test: Focal cerebral ischemia (MCAO), infarct size by TTC staining; format: in vivo, Sprague–Dawley rats; settings: SD rats, BBD 10 mg/kg i.p. 90 min after MCAO; ischemia group 16.1%
Protocol: as §7, with “Sprague-Dawley” for “Sprague–Dawley”, “rat's” for “rat’s”

[20] = tested on: ERK; test: Western blot of hypoxia-induced signaling, BV-2: ERK; format: cell-based, murine; settings: BV-2 cells, 10 min hypoxia, BBD 20 μM
Protocol: as §1, §2

[21] = tested on: IL-1; test: Hypoxia-induced IL-1 production (ELISA), BV-2; format: cell-based, murine
Protocol: as §1, §3

[22] = tested on: neurons; test: Toxicity of BBD alone to neurons; format: cell-based; settings: BBD 100 μM alone, data not shown
[23] = tested on: MDA in PC12 cells; test: Lipid peroxidation (MDA) under hypoxia, PC12; format: cell-based, rat; settings: hypoxia 30 min, BBD 1, 10, 20 μM
Source text: as §1
(§8) Lipid peroxidation is quantified by measuring malondialdehyde (MDA) of PC12 cells and brain tissue of SD rats by lipid peroxidation (LPO) assay kit (Cayman). This kit works on the principle of condensation of one molecule of either MDA or 4-hydroxyalkenals with two molecules of N-methyl-2-phenylindole to yield a stable chromophore. MDA levels were assayed by measuring the amount expressed in 5 × 10^5 cells of PC12 and SD brain tissue, and the absorbance at 500 nm was determined using a microplate reader (spectraMAX 340).

[24] = tested on: malondialdehyde (MDA) of brain tissue; test: Lipid peroxidation (MDA) of ischemic brain tissue; format: in vivo, Sprague–Dawley rats; settings: SD rat brain, BBD 10 mg/kg i.p. 90 min after MCAO
Protocol: as §7, with “artery.” for “artery. The middle cerebral artery was loosely encircled with an 8-O suture for later occlusion. A focal cerebral ischemia was induced by occlusion of the right common carotid artery and the right cerebral artery (MCAO) for 60 min, followed by reperfusion.”
as §8, with “This kit works on the principle of condensation of one molecule of either MDA or 4-hydroxyalkenals with two molecules of N-methyl-2-phenylindole to yield a stable chromophore.” left out

[25] = tested on: PC12 cells; test: LDH release under hypoxia, PC12; format: cell-based, rat; settings: BBD 1, 10, 20 μM
Protocol: as §4, §1, §5

[26] = tested on: IL-6; test: Hypoxia-induced IL-6 production (ELISA), BV-2; format: cell-based, murine
Protocol: as §1, §3

[27] = PAMPA-BBB, known value; no reference given; cited from earlier work
[28] = BV-2 cells, hypoxia 30 min, BBD 1, 10, 20 μM
[29] = hypoxia, concentration not given

COc1cccc(CC(CO)C(CO)Cc2cccc(OC)c2)c1 (stereo not shown) [BBD, 3-bis (3-methoxybenzyl) butane-1,4-diol]
reduced expression of COX-2 [1]: 13 ± 7% | hypoxia-induced increase in MDA level [2]: suppressed | hypoxia-induced ROS accumulation (DCF signal) [3, 28]: decreasing the ROS accumulation | inhibition of hypoxia-induced ROS production ([3]; hypoxia, cell line and concentration not stated): 40-50% | Classification ([4]; PAMPA-BBB predicted BBB permeation class): BBB+ (BBB + compound (high BBB permeation predicted): Pe (10^-6 cm s^-1) > 4.0) | Papp at 100 μg/ml ([4]; pig, PAMPA, pH 7.4): 209 ± 30.5 nm/s | reduced expression of Caspase-3 [5]: 50 ± 7% | reduced expression of p38 [6]: -8 ± 10% | hypoxia-induced PGE2 release [7]: decreased PGE2 release from BV-2 cells significantly | hypoxia-induced LDH release [8]: reduced | suppressed hypoxia induced expression of ERK [9]: 9 ± 7% | cell viability (MTT) under hypoxia [10]: increased | suppressed hypoxia induced expression of p38 [11]: -10 ± 9% | cell viability (MTT) under hypoxia [12]: preserved | hypoxia-induced ROS accumulation (DCF signal) [13]: decreasing the ROS accumulation | reduced expression of JNK [14]: 88 ± 6% | suppressed hypoxia induced expression of JNK [15]: 86 ± 5% | increase of SOD activity as compared to the ischemia group [16]: 24% | SOD activity ([16]; ischemia group 68 μ/mL): 84 μ/mL | suppressed hypoxia induced expression of COX-2 [17]: 75 ± 11% | reduced expression of AKT-1 [18]: 45 ± 6% | infarct size [19]: 4.9% | reduced expression of ERK [20]: 10 ± 7% | hypoxia-induced IL-1 production [21, 28]: dose-dependently decreased | inhibition of hypoxia-induced IL-1 production [21, 29]: 40-50% | toxicity to neurons [22]: not toxic | hypoxia-induced increase in MDA level [23]: suppressed | decrease of MDA level as compared to the ischemia group [24]: 6% | MDA level ([24]; ischemia group 83 μM): 78 µM | hypoxia-induced LDH release [25]: decreased | hypoxia-induced IL-6 production [26, 28]: dose-dependently decreased | inhibition of hypoxia-induced IL-6 production [26, 29]: 40-50%

c1cc2c(cc1[C@H]1OC[C@H]3[C@@H]1CO[C@@H]3c1ccc3c(c1)OCO3)OCO2 [Sesamin, sesamin]
Pe ([4]; pig, PAMPA, 100 μg/ml, pH 7.4): 0.00 ± 0.01 10^ -6 cm/s

Cn1c(=O)c2[nH]cnc2n(C)c1=O [Theophylline, theophylline]
Known Pe [27]: 0.12 ~ 0.18 10^ -6 cm/s
